Consider 16 molecules from US12521375B2, “Pharmaceutical composition for treating fatty liver disease” (Shionogi & Co., Ltd., priority 2020, dated 2026).

One series addresses recombinant human ACC1 (Homo sapiens (Human), UniProt Q13085). As to the kind of experiment: Measurement of inhibitory activity of human ACC1. Format: biochemical. The conditions noted are these: read-out: IC50 hACC1. From the text: A cDNA encoding human ACC1 protein (1 amino acid residue to 2346 amino acid residues from the N-terminus) was cloned from a human liver cDNA library (BioChain Institute Inc.), myc tag and His-tag sequences were introduced at the 3′ end, and then inserted into pIEXBAC3 (Novagen). A recombinant baculovirus was produced in accordance with the protocol for FlashBACGOLD (Oxford Expression Technologies Ltd.), and Sf-9 cells were infected therewith to express human ACC1 protein. The recovered cells were crushed, filtered through a filter, and then subjected to Ni affinity chromatography and anion exchange chromatography. Fractions containing human ACC1 protein were collected to obtain recombinant human ACC1.
(§1) The recombinant human ACC1 and the recombinant human ACC2 obtained from the above Preparation Examples were preincubated in an assay buffer (50 mM HEPES-KOH (pH 7.4), 10 mM magnesium chloride, 6 to 10 mM potassium citrate, 4 mM reduced glutathione, and 1.5 mg/ml bovine serum albumin) for 1 hour. Then, 5 μL of the pre-incubated enzyme solution and 5 μL of a substrate solution (50 mM HEPES-KOH (pH 7.4), 1 mM ATP, 0.8 mM acetyl-CoA, and 25 to 50 mM potassium bicarbonate) were added to a 384-well microplate into which 0.2 μL of each of solutions of the compound of the present invention (DMSO) had been dispensed, and the mixture was centrifuged and shaken, and then incubated in a wet box at room temperature for 1 to 3 hours. After incubation, the enzymatic reaction was stopped by addition of EDTA, and then the compound was co-crystallized with an α-cyano-4-hydroxy cinnamic acid (CHCA) matrix on a MALDI target plate, and measurement was performed in a reflector negative mode using a matrix-assisted laser desorption ionization-time-of-flight mass spectrometer (MALDI-TOF MS). Deprotonated ions of the substrate acetyl-CoA (AcCoA) and the reaction product malonyl-CoA (MalCoA) were detected, and the intensity of each signal was used to calculate a conversion rate to malonyl-CoA […], i.e., intensity of [MalCoA-H]-/(intensity of [MalCoA-H]-+intensity of [AcCoA-H]-). […] The potassium citrate concentration in the assay buffer, the potassium bicarbonate concentration in the substrate solution, and the incubation time were adjusted within the above concentrations or reaction times for each lot of the enzyme to be used.

The target in a further series is recombinant human ACC2 (Homo sapiens (Human), UniProt O00763). As to the kind of experiment: Measurement of inhibitory activity of human ACC2. The format is biochemical. The conditions noted are these: read-out: IC50 hACC2.
Chain of recombinant human ACC2 (O00763 27-2458): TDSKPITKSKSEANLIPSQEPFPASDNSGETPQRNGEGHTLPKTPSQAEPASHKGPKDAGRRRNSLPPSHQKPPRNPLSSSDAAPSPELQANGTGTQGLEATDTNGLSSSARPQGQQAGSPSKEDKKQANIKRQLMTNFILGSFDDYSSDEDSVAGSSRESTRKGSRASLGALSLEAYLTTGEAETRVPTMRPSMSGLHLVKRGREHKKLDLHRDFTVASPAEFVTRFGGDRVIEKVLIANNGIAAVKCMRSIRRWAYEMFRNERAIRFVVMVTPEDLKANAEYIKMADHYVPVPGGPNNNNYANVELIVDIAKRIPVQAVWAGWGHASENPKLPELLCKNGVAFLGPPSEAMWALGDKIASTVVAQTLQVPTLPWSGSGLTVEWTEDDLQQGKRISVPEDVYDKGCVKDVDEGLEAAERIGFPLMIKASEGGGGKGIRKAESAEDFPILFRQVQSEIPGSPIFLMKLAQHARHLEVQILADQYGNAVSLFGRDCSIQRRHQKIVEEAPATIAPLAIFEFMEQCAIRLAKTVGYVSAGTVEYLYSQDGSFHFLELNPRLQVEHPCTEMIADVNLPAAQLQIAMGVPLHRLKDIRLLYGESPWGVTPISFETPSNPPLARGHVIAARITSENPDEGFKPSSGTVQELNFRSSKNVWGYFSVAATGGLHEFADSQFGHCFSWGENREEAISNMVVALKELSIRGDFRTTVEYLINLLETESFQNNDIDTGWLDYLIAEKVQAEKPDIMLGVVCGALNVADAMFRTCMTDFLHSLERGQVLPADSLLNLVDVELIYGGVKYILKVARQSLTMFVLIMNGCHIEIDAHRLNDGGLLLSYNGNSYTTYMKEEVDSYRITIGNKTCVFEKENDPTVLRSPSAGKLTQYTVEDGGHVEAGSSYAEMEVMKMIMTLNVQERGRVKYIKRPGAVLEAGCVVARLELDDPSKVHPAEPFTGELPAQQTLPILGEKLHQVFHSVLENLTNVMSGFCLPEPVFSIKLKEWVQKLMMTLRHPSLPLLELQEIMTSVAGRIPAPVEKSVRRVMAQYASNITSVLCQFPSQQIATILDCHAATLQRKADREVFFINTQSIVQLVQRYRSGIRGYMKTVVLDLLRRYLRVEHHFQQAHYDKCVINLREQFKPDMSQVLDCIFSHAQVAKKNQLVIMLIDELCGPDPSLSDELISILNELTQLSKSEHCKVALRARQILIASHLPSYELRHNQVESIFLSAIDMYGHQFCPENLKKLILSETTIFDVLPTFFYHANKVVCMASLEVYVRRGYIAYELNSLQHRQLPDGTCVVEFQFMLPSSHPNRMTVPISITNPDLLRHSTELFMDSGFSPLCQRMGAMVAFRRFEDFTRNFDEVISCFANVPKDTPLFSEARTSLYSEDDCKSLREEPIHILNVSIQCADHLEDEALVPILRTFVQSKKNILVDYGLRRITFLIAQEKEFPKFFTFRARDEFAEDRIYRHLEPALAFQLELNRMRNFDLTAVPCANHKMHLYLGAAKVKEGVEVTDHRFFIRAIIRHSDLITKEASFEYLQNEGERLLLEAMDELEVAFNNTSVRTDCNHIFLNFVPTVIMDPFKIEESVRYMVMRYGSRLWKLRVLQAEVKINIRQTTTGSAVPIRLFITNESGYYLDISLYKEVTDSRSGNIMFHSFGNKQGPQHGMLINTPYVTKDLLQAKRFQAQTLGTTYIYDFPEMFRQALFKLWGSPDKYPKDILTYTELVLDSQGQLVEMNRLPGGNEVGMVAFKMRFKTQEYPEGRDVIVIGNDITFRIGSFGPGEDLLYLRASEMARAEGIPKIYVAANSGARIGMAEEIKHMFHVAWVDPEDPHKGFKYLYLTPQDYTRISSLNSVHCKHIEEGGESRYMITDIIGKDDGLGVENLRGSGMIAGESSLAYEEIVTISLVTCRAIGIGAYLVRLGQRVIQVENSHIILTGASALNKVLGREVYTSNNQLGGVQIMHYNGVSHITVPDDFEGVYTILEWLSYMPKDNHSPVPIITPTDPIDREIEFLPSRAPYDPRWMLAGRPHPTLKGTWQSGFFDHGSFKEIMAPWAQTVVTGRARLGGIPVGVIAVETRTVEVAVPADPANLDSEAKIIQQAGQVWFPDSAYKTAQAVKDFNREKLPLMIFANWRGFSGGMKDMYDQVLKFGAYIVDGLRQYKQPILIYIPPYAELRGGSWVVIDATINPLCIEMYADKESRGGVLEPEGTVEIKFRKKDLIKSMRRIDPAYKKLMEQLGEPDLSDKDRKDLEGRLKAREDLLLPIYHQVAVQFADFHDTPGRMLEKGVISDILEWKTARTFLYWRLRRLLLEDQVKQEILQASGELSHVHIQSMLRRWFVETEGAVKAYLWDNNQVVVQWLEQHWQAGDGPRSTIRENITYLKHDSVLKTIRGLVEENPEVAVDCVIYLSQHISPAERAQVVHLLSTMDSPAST
From the text: A cDNA encoding human ACC2 protein (27 amino acid residues to 2458 amino acid residues from the N-terminus) was cloned from a human kidney cDNA library (Clontech Laboratories, Inc.), a His-tag sequence was introduced at the 5′ end, and then inserted into pFastBac1 (Invitrogen). A recombinant baculovirus was produced in accordance with the protocol for a Bac-to-Bac baculovirus expression system (Invitrogen), and Sf-9 cells were infected therewith to express human ACC2 protein. The recovered cells were crushed, filtered through a filter, and then subjected to Ni affinity chromatography and anion exchange chromatography. Fractions containing human ACC2 protein were collected to obtain recombinant human ACC2.
as §1, with “Then, 5 μL of the pre-incubated enzyme solution and 5 μL of a substrate solution (50 mM HEPES-KOH (pH 7.4), 1 mM ATP, 0.8 mM acetyl-CoA, and 25 to 50 mM potassium bicarbonate) were added to a 384-well microplate into which 0.2 μL of each of solutions of the compound of the present invention (DMSO) had been dispensed, and the mixture was centrifuged and shaken, and then incubated in a wet box at room temperature for 1 to 3 hours.” left out

Series [1] can be described thus: Metabolic stability test (human). Format: in vitro ADME. As to conditions: human liver microsomes, 37° C., 30 minutes, NADPH. As for the experimental part:
(§2) Commercially available pooled human liver microsomes were reacted with the compound of the present invention for a given time. A residual rate was calculated by comparison between the reacted sample and the unreacted sample to evaluate a degree at which the compound of the present invention is metabolized in the liver.
(§3) The compound was reacted at 37° C. for 0 minutes or 30 minutes in the presence of 1 mmol/L NADPH in 0.2 mL of a buffer (50 mmol/L Tris-HCl pH 7.4, 150 mmol/L potassium chloride, and 10 mmol/L magnesium chloride) containing 0.5 mg protein/mL of the human liver microsomes (oxidative reaction). After the reaction, 50 μL of the reaction solution was added to 100 μL of a solution of methanol/acetonitrile=1/1 (v/v) and mixed, and the mixture was centrifuged at 3000 rpm for 15 minutes. The compound of the present invention in the centrifuged supernatant was quantified by LC/MS/MS or solid-phase extraction (SPE)/MS. The amount of the compound of the present invention remained after the reaction was calculated with the amount of the compound at 0 minutes of the reaction defined as 100%.

A short description of series [2]: Metabolic stability test (rat). Format: in vitro ADME. As for the experimental part:
[Worded in the source for another species; this species is reported under the same test.] as §2, §3

Another series deals with NAFLD patients. The conditions noted are these: cited from earlier work.
A further series deals with healthy subjects. As to conditions: repeated administration to healthy subjects; cited from earlier work.

Where two headings read alike, the source gives them in different places.

Regarding `Cn1c(O[C@H]2CC[C@H](OC[C@H](CF)NC(N)=O)CC2)nc2c(F)cc(OC3CC3)cc21` [Compound I-5], the IC50 at recombinant human ACC1 stood at 6900 nM; on recombinant human ACC2 it was 8.9 nM. For the same molecule, the “Amount of compound remained, Human” value in series [1] worked out at 98.9%. For the same molecule, the “Amount of compound remained, Rat” value in series [2] is on record as 83.4%.

As to `CC(=O)N[C@@H](C)CC(F)(F)[C@@H]1CC[C@@H](Oc2nc3c(F)cc(OCC(F)F)c(F)c3n2C)CO1` [Compound I-10], the IC50 was over 100000 nM on recombinant human ACC1 and 89 nM at recombinant human ACC2.

On to `COc1ccccc1[C@H](Cn1c(=O)n(C(C)(C)C(=O)O)c(=O)c2c(C)c(-c3ncco3)sc21)OC1CCOCC1` [firsocostat], for which the Plasma triglyceride concentration result in the series on NAFLD patients (phase II study over 12 weeks) is listed as “elevated plasma triglyceride concentration”.

`CC(=O)N[C@@H](C)C(F)(F)C[C@H]1CC[C@H](Oc2nc3c(F)cc(OCC(F)F)c(F)c3n2C)CO1` [Compound I-6]: the values for the IC50 at recombinant human ACC1 and on recombinant human ACC2 were 920 nM and 12 nM, respectively. Further, the “Amount of compound remained, Human” value in series [1] came out at 93.2%. The “Amount of compound remained, Rat” value in series [2] was determined as 74%.

Consider `CC(=O)N[C@@H](C)CO[C@H]1CC[C@H](Oc2nc3c(F)cc(OC4CCC4)cc3n2C)CC1` [Compound I-1], for which the half-inhibitory concentration (IC50) at recombinant human ACC1 came to 320 nM.

Consider `CC(=O)N[C@H](C)C(F)(F)C[C@H]1CC[C@H](Oc2nc3c(F)cc(OCC(F)F)c(F)c3n2C)CO1` [Compound I-7], for which the IC50 at recombinant human ACC1 was 25000 nM; on recombinant human ACC2 it was 180 nM. Also, in series [1], the “Amount of compound remained, Human” value is 89.1%. For the same molecule, the “Amount of compound remained, Rat” value in series [2] was determined as 74.7%.

In the case of `C[C@@H](CO[C@H]1CC[C@H](Oc2nc3c(Cl)cc(OC4CC4)cc3n2C)CC1)NC(N)=O` [Compound I-8], the IC50 was 6200 nM on recombinant human ACC1 and 17 nM on recombinant human ACC2. For the same molecule, in series [1], the “Amount of compound remained, Human” value worked out at 83.6%. Besides, the “Amount of compound remained, Rat” value in series [2] is on record as 85.4%.

With `CC(=O)N[C@@H](CF)CO[C@H]1CC[C@H](Oc2nc3c(F)cc(OC4CC4)cc3n2C)CC1` [Compound I-4], the IC50 on recombinant human ACC1 is 2700 nM; at recombinant human ACC2, 4.7 nM. Further, the “Amount of compound remained, Human” value in series [1] worked out at 93.4%. Moreover, in series [2], the “Amount of compound remained, Rat” value is on record as 87.3%.

For the molecule `CC(=O)N[C@@H](C)CO[C@H]1CC[C@H](Oc2nc3c(F)cc(OCC(F)F)c(F)c3n2C)CC1` [Compound I-14], the IC50 turned out to be 2700 nM at recombinant human ACC1 and 6.6 nM on recombinant human ACC2. The “Amount of compound remained, Human” value in series [1] came out at 94.8%. Also, the “Amount of compound remained, Rat” value in series [2] worked out at 78%.

In the case of `C[C@@H](CCC1OCC(Oc2nc3c(F)cc(OCC(F)F)c(F)c3n2C)CO1)NC(N)=O` (stereo partly drawn) [Compound I-11], the IC50 at recombinant human ACC1 is 7000 nM; on recombinant human ACC2 it was 9.6 nM. Further, the “Amount of compound remained, Human” value in series [1] is 95.8%. The “Amount of compound remained, Rat” value in series [2] was 94.5%.

For `CC(=O)N[C@@H](C)CO[C@H]1CC[C@H](Oc2nc3c(F)cc(OC4CC4)cc3n2C)CC1` [Compound I-15], the IC50 at recombinant human ACC1 was 1700 nM; at recombinant human ACC2, 3.8 nM. The “Amount of compound remained, Human” value in series [1] is recorded as 80.2%. In series [2], the “Amount of compound remained, Rat” value came to 76.2%.

Turning to `Cc1nc2ccc(C(=O)N3CCC4(CC3)CC(=O)c3c(cnn3C(C)C)C4)cc2[nH]1` [PF-05175157], the platelet concentration result with healthy subjects is on record as “reduced a platelet concentration”.

In the case of `CC(=O)N[C@@H](C)CC[C@H]1OC[C@H](Oc2nc3c(F)cc(OCC(F)F)c(F)c3n2C)C[C@@H]1F` [Compound I-2], the figures for the IC50 on recombinant human ACC1 and on recombinant human ACC2 were 2400 nM and 10 nM, respectively.

Turning to `CC(=O)N[C@@H](C)CO[C@H]1CC[C@H](Oc2nc3c(Cl)cc(OC4CC4)cc3n2C)CC1` [Compound I-3], the IC50 on recombinant human ACC1 is 2800 nM. The “Amount of compound remained, Human” value in series [1] amounted to 80.3%. The “Amount of compound remained, Rat” value in series [2] is reported as 82.6%.

Take `COc1cc(C(=O)N2CCC3(CC2)CC(=O)c2cc(-c4cncc(C(=O)O)c4)ccc2O3)cc2c1c(C)cn2C1CC1` [MK-4074]: the Plasma triglyceride concentration entry in the series on NAFLD patients was “elevated plasma triglyceride concentration”.

In the case of `CC(=O)N[C@@H](C)CC[C@H]1OC[C@H](Oc2nc3c(F)cc(OCC(F)F)c(F)c3n2C)CC1(F)F` [Compound I-9], the IC50 is 2600 nM on recombinant human ACC1 and 13 nM at recombinant human ACC2.
